The term IC50 denotes the concentration that inhibits the measured activity by half. Higher therefore signals weaker potency in that assay. In general, Ki refers to a dissociation constant, usually derived from enzyme kinetics or from competition with a known ligand.

The values that follow come from ChEMBL document CHEMBL4321866, “Discovery of Highly Potent and Efficient PROTAC Degraders of Androgen Receptor (AR) by Employing Weak Binding Affinity VHL E3 Ligase Ligands” (J Med Chem, 2019).

Experiment [1] concerns the target T1, von Hippel-Lindau disease tumor suppressor/Androgen receptor (Homo sapiens, UniProt P10275+P40337). In words: Protac activity against VHL/AR in AR-positive human LNCAP cells assessed as induction of AR degradation at 0.1 uM incubated for 6 hrs by Western blot analysis relative to control. The class given is cell-based. For orientation: Immunoblotting shows a protein as a band on a membrane.

Experiment [2] deals with T1, von Hippel-Lindau disease tumor suppressor/Androgen receptor. Put plainly: Protac activity against VHL/AR in AR-positive human LNCAP cells assessed as induction of AR degradation at 0.01 uM incubated for 6 hrs by Western blot analysis relative to control. The class given is cell-based.
The target is the same in experiment [3]. In words: Protac activity against VHL/AR in AR-positive human LNCAP cells assessed as induction of AR degradation at 1 uM incubated for 6 hrs by Western blot analysis relative to control. The class given is cell-based.
A short description of experiment [4]: Inhibition of His-TEV-tagged VHL (54 to 213 residues) (unknown origin)/Elongin B (1 to 118 residues)/Elongin C (1 to 96 residues) expressed in Escherichia coli BL21(DE3) incubated for 60 mins by FP assay. Details: species or system Homo sapiens.

T1 sequence (P10275 whole entry, looked up): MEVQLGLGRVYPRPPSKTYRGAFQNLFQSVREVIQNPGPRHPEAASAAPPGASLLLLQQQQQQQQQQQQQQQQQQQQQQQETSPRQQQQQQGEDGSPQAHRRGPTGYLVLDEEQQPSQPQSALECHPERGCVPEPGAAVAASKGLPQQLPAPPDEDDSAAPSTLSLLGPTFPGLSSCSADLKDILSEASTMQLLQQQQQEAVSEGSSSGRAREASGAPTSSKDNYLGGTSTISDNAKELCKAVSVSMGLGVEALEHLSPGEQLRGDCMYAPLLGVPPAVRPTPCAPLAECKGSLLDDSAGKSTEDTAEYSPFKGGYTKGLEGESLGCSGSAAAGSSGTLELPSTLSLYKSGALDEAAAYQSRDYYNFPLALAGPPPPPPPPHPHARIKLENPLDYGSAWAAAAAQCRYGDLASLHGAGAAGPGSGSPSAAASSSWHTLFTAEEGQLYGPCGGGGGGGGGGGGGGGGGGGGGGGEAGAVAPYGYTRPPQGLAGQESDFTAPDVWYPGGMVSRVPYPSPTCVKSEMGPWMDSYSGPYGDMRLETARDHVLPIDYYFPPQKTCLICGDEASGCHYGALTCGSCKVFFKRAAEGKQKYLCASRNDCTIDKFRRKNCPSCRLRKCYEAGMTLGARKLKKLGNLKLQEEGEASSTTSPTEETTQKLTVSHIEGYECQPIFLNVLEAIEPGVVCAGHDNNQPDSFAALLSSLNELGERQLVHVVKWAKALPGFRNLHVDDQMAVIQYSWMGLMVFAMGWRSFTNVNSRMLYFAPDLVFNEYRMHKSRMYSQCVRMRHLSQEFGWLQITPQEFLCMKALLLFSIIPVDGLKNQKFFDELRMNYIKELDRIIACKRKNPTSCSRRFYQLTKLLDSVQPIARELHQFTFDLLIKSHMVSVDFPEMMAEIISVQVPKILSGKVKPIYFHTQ
T1 sequence (P40337 whole entry, looked up): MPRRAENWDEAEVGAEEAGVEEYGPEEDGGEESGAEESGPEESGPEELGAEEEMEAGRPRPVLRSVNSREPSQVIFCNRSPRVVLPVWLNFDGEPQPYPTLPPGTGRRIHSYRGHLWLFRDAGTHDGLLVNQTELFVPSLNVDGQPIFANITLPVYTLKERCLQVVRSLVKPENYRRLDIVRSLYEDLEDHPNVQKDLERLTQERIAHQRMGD

With `Cc1cc([C@H](C(=O)N2C[C@H](O)C[C@H]2C(=O)N[C@@H](CC(=O)N2CCC(N3CCC(C#Cc4ccc(C(=O)N[C@H]5C(C)(C)[C@H](Oc6ccc(C#N)c(Cl)c6)C5(C)C)cc4)CC3)CC2)c2ccc(C#N)cc2)C(C)C)on1`, the Activity in experiment [1] was > 95%; in experiment [2] it was 81%; in experiment [3] it was > 99%.

In the case of `Cc1cc([C@H](C(=O)N2C[C@H](O)C[C@H]2C(=O)N[C@@H](CC(=O)N2CCC(c3ccc(C(=O)N[C@H]4C(C)(C)[C@H](Oc5ccc(C#N)c(Cl)c5)C4(C)C)cc3)CC2)c2ccccc2)C(C)C)on1`, the Activity in experiment [1] was > 95%; in experiment [2], 38%; in experiment [3] it was > 99%.

As for `Cc1cc([C@H](C(=O)N2C[C@H](O)C[C@H]2C(=O)N[C@@H](CC(=O)N2CCC(N3CCC(C#Cc4ccc(C(=O)N[C@H]5C(C)(C)[C@H](Oc6ccc(C#N)c(Cl)c6)C5(C)C)cc4)CC3)CC2)c2ccccc2)C(C)C)on1`, the Activity was 72% in experiment [1], 62% in experiment [2] and > 99% in experiment [3].

On to `Cc1cc([C@H](C(=O)N2C[C@H](O)C[C@H]2C(=O)N[C@@H](CC(=O)N2CCC(C3CN(c4ccc(C(=O)N[C@H]5C(C)(C)[C@H](Oc6ccc(C#N)c(Cl)c6)C5(C)C)cc4)C3)CC2)c2ccccc2)C(C)C)on1`, for which the Activity was > 95% in experiment [1], 48% in experiment [2] and > 99% in experiment [3].

Regarding `CNC(=O)C[C@H](NC(=O)[C@@H]1C[C@@H](O)CN1C(=O)[C@@H](NC(C)=O)C(C)C)c1ccccc1`, the IC50 in experiment [4] is > 100000 nM.

`Cc1cc([C@H](C(=O)N2C[C@H](O)C[C@H]2C(=O)N[C@@H](CC(=O)N2CCC(N3CCC(C#Cc4ccc(C(=O)N[C@H]5C(C)(C)[C@H](Oc6ccc(C#N)c(Cl)c6)C5(C)C)cc4)CC3)CC2)c2ccc(Cl)cc2)C(C)C)on1`: the Activity is > 95% in experiment [1], 85% in experiment [2] and > 99% in experiment [3].

For the compound `CC(=O)N[C@H](C(=O)N1C[C@H](O)C[C@H]1C(=O)N[C@@H](CC(=O)N1CCC(C#Cc2ccc(C(=O)N[C@H]3C(C)(C)[C@H](Oc4ccc(C#N)c(Cl)c4)C3(C)C)cc2)CC1)c1ccccc1)C(C)C`, the Activity in experiment [1], in experiment [2] and in experiment [3] was < 5% each time.

For the compound `Cc1cc([C@H](C(=O)N2C[C@H](O)C[C@H]2C(=O)N[C@@H](CC(=O)N2CCN(c3ccc(C(=O)N[C@H]4C(C)(C)[C@H](Oc5ccc(C#N)c(Cl)c5)C4(C)C)cc3)CC2)c2ccccc2)C(C)C)on1`, the results for the Activity in experiment [1], in experiment [2] and in experiment [3] were > 95%, < 5% and > 99%, respectively.

In experiment [4], `CNC(=O)C[C@H](NC(=O)[C@@H]1C[C@@H](O)CN1C(=O)[C@@H](c1cc(C)no1)C(C)C)c1ccc(C#N)cc1` registered an IC50 of 1080 nM and a Ki of 310 nM.

Turning to `CC(=O)N[C@H](C(=O)N1C[C@H](O)C[C@H]1C(=O)N[C@@H](CC(=O)N1CCC(N2CCC(C#Cc3ccc(C(=O)N[C@H]4C(C)(C)[C@H](Oc5ccc(C#N)c(Cl)c5)C4(C)C)cc3)CC2)CC1)c1ccccc1)C(C)C`, the Activity in experiment [1] is 11%; in experiment [2] it was 8%; in experiment [3], 17%.

As for `Cc1cc([C@H](C(=O)N2C[C@H](O)C[C@H]2C(=O)N[C@@H](CC(=O)N2CCC(N3CCC(C#Cc4ccc(C(=O)N[C@H]5C(C)(C)[C@H](Oc6ccc(C#N)c(Cl)c6)C5(C)C)cc4)CC3)CC2)c2ccc(Br)cc2)C(C)C)on1`, the Activity in experiment [1] was 76%; in experiment [2] it was 45%; in experiment [3], > 95%.

Take `Cc1cc([C@H](C(=O)N2C[C@H](O)C[C@H]2C(=O)N[C@@H](CC(=O)N2CCC(C#Cc3ccc(C(=O)N[C@H]4C(C)(C)[C@H](Oc5ccc(C#N)c(Cl)c5)C4(C)C)cc3)CC2)c2ccc(F)cc2)C(C)C)on1`: the Activity in experiment [1] was > 95%; in experiment [2] it was 62%; in experiment [3], > 99%.

For the compound `Cc1cc([C@H](C(=O)N2C[C@H](O)C[C@H]2C(=O)N[C@@H](CC(=O)N2CCC(C#Cc3ccc(C(=O)N[C@H]4C(C)(C)[C@H](Oc5ccc(C#N)c(Cl)c5)C4(C)C)cc3)CC2)c2ccc(Cl)cc2)C(C)C)on1`, the values for the Activity in experiment [1], in experiment [2] and in experiment [3] were > 95%, 85% and > 99%, respectively.

`Cc1cc([C@H](C(=O)N2C[C@H](O)C[C@H]2C(=O)N[C@@H](CC(=O)N2CCC(N3CC(C#Cc4ccc(C(=O)N[C@H]5C(C)(C)[C@H](Oc6ccc(C#N)c(Cl)c6)C5(C)C)cc4)C3)CC2)c2ccccc2)C(C)C)on1`: the Activity in experiment [1] was found to be 68%; in experiment [2], 6%; in experiment [3], 86%.

As for `Cc1cc([C@H](C(=O)N2C[C@H](O)C[C@H]2C(=O)N[C@@H](CC(=O)N2CCC(N3CCC(C#Cc4ccc(C(=O)N[C@H]5C(C)(C)[C@H](Oc6ccc(C#N)c(Cl)c6)C5(C)C)cc4)CC3)CC2)c2ccc(F)cc2)C(C)C)on1`, the Activity in experiment [1] was > 95%; in experiment [2] it was 92%; in experiment [3] it was > 99%.

As to `Cc1cc([C@H](C(=O)N2C[C@H](O)C[C@H]2C(=O)N[C@@H](CC(=O)N2CCC(N3CC(c4ccc(C(=O)N[C@H]5C(C)(C)[C@H](Oc6ccc(C#N)c(Cl)c6)C5(C)C)cc4)C3)CC2)c2ccccc2)C(C)C)on1`, the figures for the Activity in experiment [1], in experiment [2] and in experiment [3] were > 95%, 40% and > 99%, respectively.

With `Cc1cc([C@H](C(=O)N2C[C@H](O)C[C@H]2C(=O)N[C@@H](CC(=O)N2CC(N3CCC(C#Cc4ccc(C(=O)N[C@H]5C(C)(C)[C@H](Oc6ccc(C#N)c(Cl)c6)C5(C)C)cc4)CC3)C2)c2ccccc2)C(C)C)on1`, the Activity worked out at 67% in experiment [1], 21% in experiment [2] and 68% in experiment [3].

Turning to `Cc1cc([C@H](C(=O)N2C[C@H](O)C[C@H]2C(=O)N[C@@H](CC(=O)N2CCC(C#Cc3ccc(C(=O)N[C@H]4C(C)(C)[C@H](Oc5ccc(C#N)c(Cl)c5)C4(C)C)cc3)CC2)c2ccc(-c3scnc3C)cc2)C(C)C)on1`, the Activity was > 95% in experiment [1], 56% in experiment [2] and > 99% in experiment [3].

Consider `Cc1cc([C@H](C(=O)N2C[C@H](O)C[C@H]2C(=O)N[C@@H](CC(=O)N2CCC(C#Cc3ccc(C(=O)N[C@H]4C(C)(C)[C@H](Oc5ccc(C#N)c(Cl)c5)C4(C)C)cc3)CC2)c2ccc(C#N)cc2)C(C)C)on1`, for which the Activity is > 95% in experiment [1], 80% in experiment [2] and > 99% in experiment [3].

With `C#Cc1ccc([C@H](CC(=O)N2CCC(C#Cc3ccc(C(=O)N[C@H]4C(C)(C)[C@H](Oc5ccc(C#N)c(Cl)c5)C4(C)C)cc3)CC2)NC(=O)[C@@H]2C[C@@H](O)CN2C(=O)[C@@H](c2cc(C)no2)C(C)C)cc1`, the results for the Activity in experiment [1], in experiment [2] and in experiment [3] were > 95%, 76% and > 99%, respectively.

Regarding `Cc1cc([C@H](C(=O)N2C[C@H](O)C[C@H]2C(=O)N[C@@H](CC(=O)N2CCC(C#Cc3ccc(C(=O)N[C@H]4C(C)(C)[C@H](Oc5ccc(C#N)c(Cl)c5)C4(C)C)cc3)CC2)c2ccc(Br)cc2)C(C)C)on1`, the figures for the Activity in experiment [1], in experiment [2] and in experiment [3] were > 95%, 31% and > 99%, respectively.

As for `C#Cc1ccc([C@H](CC(=O)N2CCC(N3CCC(C#Cc4ccc(C(=O)N[C@H]5C(C)(C)[C@H](Oc6ccc(C#N)c(Cl)c6)C5(C)C)cc4)CC3)CC2)NC(=O)[C@@H]2C[C@@H](O)CN2C(=O)[C@@H](c2cc(C)no2)C(C)C)cc1`, the Activity in experiment [1] was > 95%; in experiment [2], 68%; in experiment [3] it was > 99%.
